One data set deals with T1, CYP2C9 (Homo sapiens, UniProt P11712).
T1 construct: Pooled human liver microsomes were obtained from Biopredic (Rennes, France); tissue Biopredic (Rennes, France); host or cells: pooled human liver microsomes, seventeen donors
The data set can be described thus: Inhibition of CYP2C9 activity (diclofenac 4′-hydroxylation) in human liver microsomes. In kind it is in vitro ADME. The settings on record: HLM, diclofenac 16 µmol·L^−1, preincubation 30 min at 37 °C, Mean ± S.D. As for the experimental part:
(§1) The following enzyme assays were performed to determine the activities of specific CYP enzymes: CYP1A2, 7-ethoxyresorufin O-deethylation; CYP2A6, coumarin 7-hydroxylation; CYP2B6, 7-ethoxy-4-(trifluoromethyl) coumarin (EFC) O-deethylation; CYP2C8 paclitaxel 6α-hydroxylation; CYP2C9, diclofenac 4′-hydroxylation; CYP2C19, diazepam N-desmethylation; CYP2D6, bufuralol 1′-hydroxylation; CYP2E1, chlorzoxazone 6-hydroxylation; and CYP3A4/5, testosterone 6β-hydroxylation. […]
(§2) For the determination of metabolites formed from specific substrates, a Prominence LC-20A HPLC system (Shimadzu, Kyoto, Japan) with UV detection or fluorescence detection was used (see Table 2). […]
(§3) Initially, for each enzyme assay, a preliminary experiment was carried out to determine Km and Vmax to obtain the appropriate concentration of the specific substrates for the inhibition experiments (the substrate concentration was chosen in the range corresponding to the value of the Km for each particular reaction). Data were analyzed using the Sigma plot software, as mentioned above, with spectral studies. […] In all cases, the inhibition of individual CYP activities was evaluated by plotting the respective remaining activity against the inhibitor concentration.
In general terms: Liver microsomes are a subcellular fraction often used to study metabolism.

Another data set has as its system CYP3A4. Description: Inhibition of CYP3A4 activity (testosterone 6β-hydroxylation) in human liver microsomes. In kind it is in vitro ADME. The settings on record: HLM, testosterone 100 µmol·L^−1, preincubation 30 min at 37 °C, Mean ± S.D. As for the experimental part:
as §1, §2, §3

Another data set deals with P. aeruginosa. The arrangement: method as in doi:10.1016/j.ica.2022.121273. The settings on record: Gram-negative; cited from earlier work.
A further data set concerns the target T2, CYP1A2 (Homo sapiens, UniProt P05177).
T2 construct: Pooled human liver microsomes were obtained from Biopredic (Rennes, France); tissue Biopredic (Rennes, France); host or cells: pooled human liver microsomes, seventeen donors
T2 sequence (P05177 1-516): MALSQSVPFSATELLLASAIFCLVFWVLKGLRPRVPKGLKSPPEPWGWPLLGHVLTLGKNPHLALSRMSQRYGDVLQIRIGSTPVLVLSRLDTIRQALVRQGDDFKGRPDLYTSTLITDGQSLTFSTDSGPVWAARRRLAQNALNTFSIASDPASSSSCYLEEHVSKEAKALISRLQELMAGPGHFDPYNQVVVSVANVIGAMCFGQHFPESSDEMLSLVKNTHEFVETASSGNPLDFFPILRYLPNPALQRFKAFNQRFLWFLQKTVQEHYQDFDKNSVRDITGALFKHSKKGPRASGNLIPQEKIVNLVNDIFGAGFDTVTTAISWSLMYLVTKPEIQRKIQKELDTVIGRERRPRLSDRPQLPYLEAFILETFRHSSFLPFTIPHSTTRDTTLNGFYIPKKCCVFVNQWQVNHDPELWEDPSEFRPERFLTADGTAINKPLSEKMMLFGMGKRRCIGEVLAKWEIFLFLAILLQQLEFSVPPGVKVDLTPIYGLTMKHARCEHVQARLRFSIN
The data set can be described thus: Inhibition of CYP1A2 activity (7-ethoxyresorufin O-deethylation) in human liver microsomes. In kind it is in vitro ADME. The note with it: HLM, 7-ethoxyresorufin 1.3 µmol·L^−1, preincubation 30 min at 37 °C, Mean ± S.D. As for the experimental part:
as §1, §2, §3

Another data set deals with T3, CYP2E1 (Homo sapiens, UniProt P05181).
T3 construct: Pooled human liver microsomes were obtained from Biopredic (Rennes, France); tissue Biopredic (Rennes, France); host or cells: pooled human liver microsomes, seventeen donors
The data set can be described thus: Inhibition of CYP2E1 activity (chlorzoxazone 6-hydroxylation) in human liver microsomes. In kind it is in vitro ADME. The settings on record: HLM, chlorzoxazone 30 µmol·L^−1, preincubation 30 min at 37 °C, Mean ± S.D. On the procedure: as §1, §2, §3

A further data set concerns the target T4, CYP2D6 (Homo sapiens, UniProt P10635).
T4 construct: Pooled human liver microsomes were obtained from Biopredic (Rennes, France); tissue Biopredic (Rennes, France); host or cells: pooled human liver microsomes, seventeen donors
The data set can be described thus: Inhibition of CYP2D6 activity (bufuralol 1′-hydroxylation) in human liver microsomes. In kind it is in vitro ADME. The settings on record: HLM, bufuralol 15 µmol·L^−1, preincubation 30 min at 37 °C, Mean ± S.D. As for the experimental part: as §1, §2, §3

For another data set, the system named is S. aureus. The arrangement: method as in doi:10.1016/j.ica.2022.121273. The settings on record: Gram-positive; cited from earlier work.
In another data set the target is T5, CYP2C19 (Homo sapiens, UniProt P33261).
T5 construct: Pooled human liver microsomes were obtained from Biopredic (Rennes, France); tissue Biopredic (Rennes, France); host or cells: pooled human liver microsomes, seventeen donors
The data set can be described thus: Inhibition of CYP2C19 activity (diazepam N-desmethylation) in human liver microsomes. In kind it is in vitro ADME. The settings on record: HLM, diazepam 150 µmol·L^−1, preincubation 30 min at 37 °C, Mean ± S.D. As for the experimental part: The following enzyme assays were performed to determine the activities of specific CYP enzymes: CYP1A2, 7-ethoxyresorufin O-deethylation; CYP2A6, coumarin 7-hydroxylation; CYP2B6, 7-ethoxy-4-(trifluoromethyl) coumarin (EFC) O-deethylation; CYP2C8 paclitaxel 6α-hydroxylation; CYP2C9, diclofenac 4′-hydroxylation; CYP2C19, diazepam N-desmethylation; CYP2D6, bufuralol 1′-hydroxylation; CYP2E1, chlorzoxazone 6-hydroxylation; and CYP3A4/5, testosterone 6β-hydroxylation.
The incubation mixtures contained 100 mmol·L^−1 potassium phosphate buffer (pH 7.4), an NADPH-generating system (0.8 mmol·L^−1 NADP^+, 5.8 mmol·L^−1 isocitrate, 0.3 unit/mL of isocitrate dehydrogenase, and 8 mmol·L^−1 MgCl2), HLM, and an individual probe substrate.
For the determination of metabolites formed from specific substrates, a Prominence LC-20A HPLC system (Shimadzu, Kyoto, Japan) with UV detection or fluorescence detection was used (see Table 2). As a rule, reversed-phase chromatography was applied with Merck (Darmstadt, Germany) LiChroCART 250 × 4 mm (i.d.) cartridges packed with a LiChrospher RP-18 silica gel (5 µm particle size) with C-18 reversed-phase properties; a 4 × 4 mm (i.d.) guard column was also used. For the composition of the mobile phase in the respective analyses, see the original reference.
Initially, for each enzyme assay, a preliminary experiment was carried out to determine Km and Vmax to obtain the appropriate concentration of the specific substrates for the inhibition experiments (the substrate concentration was chosen in the range corresponding to the value of the Km for each particular reaction). Data were analyzed using the Sigma plot software, as mentioned above, with spectral studies. Inhibition experiments were performed with a concentration range of the tested complexes from 0.78 to 50 µmol·L^−1. The concentration range used here is in accordance with the MIC (see above) and is adequate. The experimental conditions were the same as for the determination of individual CYP activities (Table 2); the assays were performed in duplicates, with individual values differing by less than 20%. Preincubation of the reaction mixtures with the tested complexes for 30 min at 37 °C was carried out in all assays. In all cases, the inhibition of individual CYP activities was evaluated by plotting the respective remaining activity against the inhibitor concentration.

Another data set has as its system E. faecalis. Also noted: method as in doi:10.1016/j.ica.2022.121273. The note with it: Gram-positive; cited from earlier work.
For a further data set, the target named is T6, CYP2B6 (Homo sapiens, UniProt P20813).
T6 construct: Pooled human liver microsomes were obtained from Biopredic (Rennes, France); tissue Biopredic (Rennes, France); host or cells: pooled human liver microsomes, seventeen donors
T6 sequence (P20813 1-491): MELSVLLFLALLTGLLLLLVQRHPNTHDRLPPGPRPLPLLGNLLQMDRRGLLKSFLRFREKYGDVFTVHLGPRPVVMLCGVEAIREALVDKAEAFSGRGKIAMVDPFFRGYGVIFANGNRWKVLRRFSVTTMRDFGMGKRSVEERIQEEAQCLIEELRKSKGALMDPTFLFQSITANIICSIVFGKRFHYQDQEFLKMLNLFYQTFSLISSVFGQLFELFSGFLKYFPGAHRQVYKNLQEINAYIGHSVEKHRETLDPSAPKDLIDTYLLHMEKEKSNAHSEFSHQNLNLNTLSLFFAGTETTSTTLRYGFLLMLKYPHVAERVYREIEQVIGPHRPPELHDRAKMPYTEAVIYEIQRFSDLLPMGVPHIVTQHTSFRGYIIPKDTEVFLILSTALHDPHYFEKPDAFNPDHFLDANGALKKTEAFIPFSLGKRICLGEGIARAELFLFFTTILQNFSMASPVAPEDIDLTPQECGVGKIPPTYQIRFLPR
The data set can be described thus: Inhibition of CYP2B6 activity (EFC O-deethylation) in human liver microsomes. In kind it is in vitro ADME. The note with it: HLM, EFC 15 µmol·L^−1, preincubation 30 min at 37 °C, Mean ± S.D. On the procedure:
as §1, §2, §3

For the next data set, the system named is E. coli. The arrangement: method as in doi:10.1016/j.ica.2022.121273. The settings on record: Gram-negative; cited from earlier work.

Each structure is given as a SMILES string.

T5 sequence (P33261 whole entry): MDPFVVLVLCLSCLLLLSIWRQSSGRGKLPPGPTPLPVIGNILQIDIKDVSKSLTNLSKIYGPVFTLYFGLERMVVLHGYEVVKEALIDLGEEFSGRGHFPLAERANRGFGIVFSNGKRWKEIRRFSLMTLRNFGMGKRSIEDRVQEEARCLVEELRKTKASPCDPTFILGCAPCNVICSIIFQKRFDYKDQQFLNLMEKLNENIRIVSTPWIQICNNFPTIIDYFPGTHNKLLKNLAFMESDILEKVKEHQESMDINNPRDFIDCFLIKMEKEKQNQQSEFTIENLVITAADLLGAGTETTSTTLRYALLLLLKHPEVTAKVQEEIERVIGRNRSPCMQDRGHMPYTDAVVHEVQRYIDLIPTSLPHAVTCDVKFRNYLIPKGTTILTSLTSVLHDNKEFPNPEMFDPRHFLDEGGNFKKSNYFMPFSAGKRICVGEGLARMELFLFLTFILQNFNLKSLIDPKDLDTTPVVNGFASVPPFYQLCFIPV
T3 sequence (P05181 whole entry): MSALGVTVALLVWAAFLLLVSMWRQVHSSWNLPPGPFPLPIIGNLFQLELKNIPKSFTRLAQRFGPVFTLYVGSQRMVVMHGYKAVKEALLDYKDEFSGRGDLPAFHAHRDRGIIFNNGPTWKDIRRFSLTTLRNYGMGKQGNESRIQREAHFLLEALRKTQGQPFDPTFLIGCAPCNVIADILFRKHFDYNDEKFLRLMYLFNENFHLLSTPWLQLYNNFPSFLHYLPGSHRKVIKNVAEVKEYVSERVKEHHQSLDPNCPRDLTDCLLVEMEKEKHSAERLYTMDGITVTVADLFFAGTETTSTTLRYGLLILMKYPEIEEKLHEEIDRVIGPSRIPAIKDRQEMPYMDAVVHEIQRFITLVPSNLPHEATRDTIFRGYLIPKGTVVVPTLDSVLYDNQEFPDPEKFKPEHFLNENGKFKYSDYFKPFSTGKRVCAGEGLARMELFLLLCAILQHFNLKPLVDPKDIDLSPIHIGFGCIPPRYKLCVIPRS
T4 sequence (P10635 whole entry): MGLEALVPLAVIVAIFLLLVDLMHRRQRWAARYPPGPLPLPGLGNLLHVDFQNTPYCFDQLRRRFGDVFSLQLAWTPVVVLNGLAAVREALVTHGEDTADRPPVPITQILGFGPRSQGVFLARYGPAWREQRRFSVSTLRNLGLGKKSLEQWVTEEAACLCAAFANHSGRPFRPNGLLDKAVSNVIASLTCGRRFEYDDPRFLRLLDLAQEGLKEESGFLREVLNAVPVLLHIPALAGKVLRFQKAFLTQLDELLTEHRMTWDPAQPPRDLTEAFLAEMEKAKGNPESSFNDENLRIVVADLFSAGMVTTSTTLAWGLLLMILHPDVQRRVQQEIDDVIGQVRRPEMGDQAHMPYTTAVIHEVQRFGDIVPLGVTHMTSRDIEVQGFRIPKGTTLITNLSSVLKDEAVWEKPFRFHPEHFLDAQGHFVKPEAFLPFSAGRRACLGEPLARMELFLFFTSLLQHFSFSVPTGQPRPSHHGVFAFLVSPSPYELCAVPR
T1 sequence (P11712 whole entry): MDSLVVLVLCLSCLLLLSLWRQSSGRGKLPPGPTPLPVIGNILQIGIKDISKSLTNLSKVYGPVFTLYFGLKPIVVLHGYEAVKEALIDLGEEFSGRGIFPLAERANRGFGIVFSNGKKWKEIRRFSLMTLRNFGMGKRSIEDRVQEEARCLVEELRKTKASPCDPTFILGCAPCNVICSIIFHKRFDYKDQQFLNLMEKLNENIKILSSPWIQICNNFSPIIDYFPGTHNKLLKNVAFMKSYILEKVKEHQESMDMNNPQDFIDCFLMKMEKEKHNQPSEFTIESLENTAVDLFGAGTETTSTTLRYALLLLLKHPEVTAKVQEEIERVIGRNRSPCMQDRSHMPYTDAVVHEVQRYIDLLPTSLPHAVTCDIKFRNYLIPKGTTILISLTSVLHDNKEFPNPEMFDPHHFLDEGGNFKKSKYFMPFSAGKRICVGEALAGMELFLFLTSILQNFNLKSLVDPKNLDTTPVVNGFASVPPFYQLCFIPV

`CN(C)CCN(C)CCN(C)C.CN(C)CCN(C)CCN(C)C.O.O.O=C([O-])/C=C/C(=O)[O-].[Cu+2].[Cu+2].[O-][Cl+3]([O-])([O-])[O-].[O-][Cl+3]([O-])([O-])[O-]` [Complex No. 5, [Cu2(μ-fu)(pmdien)2(H2O)2](ClO4)2]: the IC50 (commonly the concentration needed to halve the response being measured) came out at 12.59 ± 0.06 µM against CYP2C9; 3.72 ± 0.23 µM with CYP3A4; 24.97 ± 0.22 µM against CYP1A2; 12.5 ± 0.18 µM on CYP2E1; 12.4 ± 0.21 µM on CYP2D6; 2.53 ± 0.59 µM at CYP2C19. The IC50 against CYP2C19 (listed as complex No. 5) is around 2.5 µM; on CYP2B6 it was 24.8 ± 0.33 µM. Besides, the “MIC P. aeruginosa” value with P. aeruginosa was 2.11 µg/mL. Besides, the “MIC S. aureus” value in the data set on S. aureus was 1.05 µg/mL. In the data set on E. faecalis, the “MIC E. faecalis” value is 4.22 µg/mL. Further, in the data set on E. coli, the “MIC E. coli” value is 8.44 µg/mL.

On to `CN(C)CCN(C)CCN(C)C.CN(C)CCN(C)CCN(C)C.O.O.O=C([O-])CCSSCCC(=O)[O-].[Cu+2].[Cu+2].[O-][Cl+3]([O-])([O-])[O-].[O-][Cl+3]([O-])([O-])[O-]` [Complex No. 6, [Cu2(μ-dtdp)(pmdien)2(H2O)2](ClO4)2], for which the IC50 against CYP2C9 was 12.26 ± 0.11 µM; with CYP3A4, 3.62 ± 0.27 µM; on CYP1A2, 25.2 ± 0.29 µM; at CYP2E1, 6.59 ± 0.18 µM; against CYP2D6, 6.33 ± 0.22 µM; at CYP2C19 it was 6.43 ± 0.63 µM. Besides, the IC50 against CYP2C19 (listed as complex No. 6) is around 6.4 µM; against CYP2B6 it was 13.3 ± 0.54 µM. Further, the “MIC P. aeruginosa” value in the data set with P. aeruginosa was 1.05 µg/mL. In the data set on S. aureus, the “MIC S. aureus” value was 8.44 µg/mL. In addition, in the data set with E. faecalis, the “MIC E. faecalis” value was 8.44 µg/mL. The “MIC E. coli” value with E. coli was 16.88 µg/mL.
